# Data: patent US20260224573A1, “CRYSTAL FORM OF COMPOUND, AND PREPARATION METHOD AND USE THEREOF” (FELICAMED BIOTECHNOLOGY CO., LTD., priority 2023, published 2026)
# Like-named read-outs stand apart in the source and are kept apart here.
# Tests used:
# [1] = Acute toxicity test, single oral intragastric administration; assay type: in vivo; conditions: Sprague-Dawley, rat, in vivo
# Description: (§1) In this experiment, all animals were randomly divided into 5 groups (5 animals/sex/group), received the drug at 97 mg/kg, 174 mg/kg, 312 mg/kg, 559 mg/kg, and 1000 mg/kg, respectively, and received signal intragastric administration orally. […] All animals received administration according to their latest weighed body weight. The drug was stirred for at least 10 min before administration, and continuously stirred during administration until the administration of the sample at this concentration was completed. The animals were fasted for 11 h to 12 h before administration and resumed eating approximately 2 h after administration, with no restriction on drinking water.
# (§2) All animals underwent a comprehensive physical examination by a veterinarian before administration. During the acclimation period, cage-side observation was performed once or twice a day, and detailed clinical observation was performed once a day. During the experiment, cage-side observation was performed twice a day (once on the day of dissection), and detailed clinical observation was performed once or twice a day. All surviving animals were weighed once on the day of random grouping (Day-1), Day 1 (before administration), Day 3, Day 5, Day 7, and Day 8; and their 24±1-hour food consumption was measured once on Day 1 (Day 1 to Day 2), Day 2 (Day 2 to Day 3), and Day 6 (Day 6 to Day 7). At the end of the experimental (Day 8), all surviving animals were euthanized by carbon dioxide inhalation and abdominal aorta/vein bleeding and then subjected to gross anatomical examination. Animals that died during the experiment were also subjected to gross anatomical examination.
# [2] = test system: SD rats; experiment: as above; assay type: in vivo; conditions: female rats
# Description: as §1, §2
structure (smiles),measurement,setting,value
CC[S@@](=N)(=O)C[C@H]1CC[C@H](N(C)c2ncnc3[nH]ccc23)CC1 [Free crystal form A],LD50 at 7 d,"[1]; oral, female rats, read-out: LD50 95% confidence interval",313 to 558 mg/kg
same,LD50 at 7 d,"[1]; oral, male rats, read-out: LD50 95% confidence interval",429 to 818 mg/kg
same,MTD at 7 d,"[1]; oral, male rats, read-out: maximum tolerance dose (MTD)",312 mg/kg
same,LD50 at 7 d,"[1]; po, female rats, single intragastric administration, 7 d observation, read-out: LD50",418 mg/kg
same,LD50 at 7 d,"[1]; po, male rats, single intragastric administration, 7 d observation, read-out: LD50",592 mg/kg
same,maximum tolerance dose,[2],174 mg/kg
same,"UPLC peak Area, RRT 1.00",25° C./60% RH/4 weeks,99.71%
same,"UPLC peak Area, RRT 1.47",25° C./60% RH/4 weeks,0.06%
same,"UPLC peak Area, RRT 1.63",25° C./60% RH/4 weeks,0.05%
same,"UPLC peak Area, RRT 2.10",25° C./60% RH/4 weeks,0.10%
same,"UPLC peak Area, RRT 2.94",25° C./60% RH/4 weeks,0.07%
same,Crystal form Transform,"25° C./60% RH/4 weeks, open",No
same,Purity,"25° C./60% RH/4 weeks, open",99.71 area %
same,"UPLC peak Area, RRT 1.00",40° C./75% RH/4 weeks,99.72%
same,"UPLC peak Area, RRT 1.47",40° C./75% RH/4 weeks,0.06%
same,"UPLC peak Area, RRT 1.63",40° C./75% RH/4 weeks,0.05%
same,"UPLC peak Area, RRT 2.10",40° C./75% RH/4 weeks,0.10%
same,"UPLC peak Area, RRT 2.94",40° C./75% RH/4 weeks,0.07%
same,Crystal form Transform,"40° C./75% RH/4 weeks, open",No
same,Purity,"40° C./75% RH/4 weeks, open",99.72 area %
same,"UPLC peak Area, RRT 1.47",80° C./1 d,0.06%
same,"UPLC peak Area, RRT 1.63",80° C./1 d,0.05%
same,"UPLC peak Area, RRT 2.10",80° C./1 d,0.10%
same,"UPLC peak Area, RRT 2.94",80° C./1 d,0.08%
same,Crystal form Transform,"80° C./1 d, closed",No
same,"UPLC peak Area, RRT 1.47",Starting,0.05%
same,"UPLC peak Area, RRT 1.63",Starting,0.05%
same,"UPLC peak Area, RRT 2.10",Starting,0.10%
same,"UPLC peak Area, RRT 2.94",Starting,0.07%
